{"source": "patent US6001884A", "about": "“Calcium receptor-active molecules” (NPS Pharmaceuticals, Inc., priority 1995, dated 1999)", "molecular_target": "T1, calcium receptor (Homo sapiens, UniProt P41180)", "T1 sequence (P41180 20-1078)": "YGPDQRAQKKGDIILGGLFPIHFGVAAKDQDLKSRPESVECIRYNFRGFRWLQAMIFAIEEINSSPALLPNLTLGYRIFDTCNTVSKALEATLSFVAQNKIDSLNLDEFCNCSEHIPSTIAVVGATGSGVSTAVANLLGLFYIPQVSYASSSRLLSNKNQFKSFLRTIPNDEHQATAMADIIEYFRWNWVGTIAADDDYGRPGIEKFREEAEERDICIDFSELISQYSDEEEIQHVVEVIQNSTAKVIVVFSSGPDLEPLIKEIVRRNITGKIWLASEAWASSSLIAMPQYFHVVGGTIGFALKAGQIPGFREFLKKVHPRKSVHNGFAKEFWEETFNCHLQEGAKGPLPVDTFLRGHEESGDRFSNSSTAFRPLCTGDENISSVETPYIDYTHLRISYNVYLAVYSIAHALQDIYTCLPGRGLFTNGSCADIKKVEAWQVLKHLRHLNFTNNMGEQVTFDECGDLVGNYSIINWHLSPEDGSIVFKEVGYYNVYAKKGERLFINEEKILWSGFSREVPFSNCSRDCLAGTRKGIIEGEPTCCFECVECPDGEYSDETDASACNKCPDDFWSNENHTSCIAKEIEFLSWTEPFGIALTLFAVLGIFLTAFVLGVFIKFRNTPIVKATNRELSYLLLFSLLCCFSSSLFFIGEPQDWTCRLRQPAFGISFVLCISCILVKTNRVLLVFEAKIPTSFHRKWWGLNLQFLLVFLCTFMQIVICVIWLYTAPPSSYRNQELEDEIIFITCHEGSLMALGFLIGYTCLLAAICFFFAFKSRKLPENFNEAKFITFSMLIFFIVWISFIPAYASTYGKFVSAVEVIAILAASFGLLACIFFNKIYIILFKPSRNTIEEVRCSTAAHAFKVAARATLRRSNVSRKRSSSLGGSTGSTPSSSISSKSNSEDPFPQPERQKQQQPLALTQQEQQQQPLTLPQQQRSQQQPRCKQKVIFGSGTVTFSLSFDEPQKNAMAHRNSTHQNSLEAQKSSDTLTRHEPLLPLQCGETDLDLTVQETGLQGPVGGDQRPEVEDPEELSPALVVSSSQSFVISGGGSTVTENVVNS", "experiment": "EC50 (concentration evoking a half-maximal effect) at an inorganic ion receptor / calcium receptor", "type": "cell-based", "excerpt": "The EC50 is the concentration of the molecule which evokes a half-maximal effect. The IC50 is the concentration of molecule which causes a half-maximal blocking effect. The EC50 or IC50 can be determined by assaying one or more of the activities of an inorganic ion at an inorganic ion receptor. Preferably, such assays are specific to a particular calcium receptor. For example, assays which measure hormones whose production or secretion is modulated by a particular inorganic ion receptor are preferred.\nNemeth et al., PCT/US93/01642, International Publication Number WO 94/18959. For example, poly(A)^+ mRNA can be obtained from cells expressing a calcium receptor, such as a parathyroid cell, bone osteoclast, juxtaglomerular kidney cell, proximal tubule kidney cell, distal tubule kidney cell, cell of the thick ascending limb of Henle's loop and/or collecting duct, keratinocyte in the epidermis, parafollicular cell in the thyroid (C-cell), intestinal cell, central nervous cell, peripheral nervous system cell, trophoblast in the placenta, platelet, vascular smooth muscle cell, cardiac atrial cell, gastrin-secreting cell, glucagon-secreting cell, kidney mesangial cell, mammary cell, beta cell, fat/adipose cell, immune cell, and GI tract cell. Preferably, the nucleic acid is from a parathyroid cell, C-cell, or osteoclast. More preferably, the nucleic acid encodes a calcium receptor and is present on a plasmid or vector.", "key": {"[1]": {"conditions": "concentration of the molecule which evokes a half-maximal effect, preferred agents, cell type and assay read-out not stated, read-out: EC50"}}, "note": "Structures can show the parent of a compound that is named as a salt. Where two headings read alike, the source gives them in different places.", "data": [{"smiles": "COc1cccc([C@@H](C)NCCCc2cccc(C)c2)c1", "note": "[Compound 12V, N-3-(3-methylphenyl)-1-propyl-(R)-3-methoxy-α-methylbenzylamine hydrochloride]", "values": [{"measurement": "EC50", "setting": "[1]", "result": "< 5", "unit": "µM"}]}, {"smiles": "COc1cccc([C@@H](C)NCCCc2ccccc2OC)c1", "note": "[Compound 8U, N-3-(2-methoxyphenyl)-1-propyl-(R)-3-methoxy-α-methylbenzylamine hydrochloride]", "values": [{"measurement": "EC50", "setting": "[1]", "result": "< 5", "unit": "µM"}]}, {"smiles": "COc1ccc([C@@H](C)N[C@H](C)c2cccc3ccccc23)cc1", "note": "[Compound 14U, (R)-N-(1-(4-methoxyphenyl)ethyl)-(R)-1-(1-naphthyl)ethylamine hydrochloride]", "values": [{"measurement": "EC50", "setting": "[1]", "result": "< 5", "unit": "µM"}]}, {"smiles": "C[C@@H](N[C@H](C)c1cccc2ccccc12)c1ccc2ccccc2c1", "note": "[Compound 9R, (R)-N-(1-(2-naphthyl)ethyl)-(R)-1-(1-naphthyl)ethylamine hydrochloride]", "values": [{"measurement": "EC50", "setting": "[1]", "result": "< 5", "unit": "µM"}]}, {"smiles": "COc1cccc([C@@H](C)NCCCc2ccccc2C)c1", "note": "[Compound 12U, N-3-(2-methylphenyl)-1-propyl-(R)-3-methoxy-α-methylbenzylamine hydrochloride]", "values": [{"measurement": "EC50", "setting": "[1]", "result": "< 5", "unit": "µM"}]}, {"smiles": "COc1ccc([C@@H](C)N[C@H](C)c2cccc3ccccc23)cc1C", "note": "[Compound 16P, (R)-N-(1-(4-Methoxy-3-methylphenyl)ethyl)-(R)-1-(1-naphthyl)ethylamine hydrochloride]", "values": [{"measurement": "EC50", "setting": "[1]", "result": "< 5", "unit": "µM"}]}, {"smiles": "COc1ccc(CN[C@H](C)c2cccc3ccccc23)cc1Cl", "note": "[Compound 16M, N-(3-chloro-4-methoxybenzyl)-(R)-1-(1-naphthyl)ethylamine hydrochloride]", "values": [{"measurement": "EC50", "setting": "[1]", "result": "< 5", "unit": "µM"}]}, {"smiles": "CSc1cccc(C(C)NCCCc2ccccc2)c1", "note": "(racemic) [Compound 8J, N-(3-phenylpropyl)-1-(3-thiomethylphenyl)ethylamine hydrochloride]", "values": [{"measurement": "EC50", "setting": "[1]", "result": "< 5", "unit": "µM"}]}, {"smiles": "CC(C)c1ccc(CN[C@H](C)c2cccc3ccccc23)cc1", "note": "[Compound 11X, N-(4-Isopropylbenzyl)-(R)-1-(1-naphthyl)ethylamine hydrochloride]", "values": [{"measurement": "EC50", "setting": "[1]", "result": "< 5", "unit": "µM"}]}, {"smiles": "C[C@@H](NCCCc1ccccc1Cl)c1cccc2ccccc12", "note": "[Compound 12Z, N-3-(2-chlorophenyl)-1-propyl-(R)-1-(1-naphthyl)ethylamine hydrochloride]", "values": [{"measurement": "EC50", "result": "< 5", "unit": "µM"}]}]}
